Calls of active or inactive are those of the source. No cut-off for these calls is given here.
Experiments:
[1] = biological target: T1, Transcription factor SOX-18 (Mus musculus) (UniProt P43680); assay: Competitive binding affinity to full-length mouse SOX18 expressed in Sf9 cells assessed as reduction in SOX1 8- DNA binding using FAM-labelled Prox1 -DNA element at 1 to 1000 uM incubated for 5 mins in dark at room temperature, 10 mins at 37 degC and 30 mins at room temperature by fluorescence polarization assay
T1 sequence (whole entry): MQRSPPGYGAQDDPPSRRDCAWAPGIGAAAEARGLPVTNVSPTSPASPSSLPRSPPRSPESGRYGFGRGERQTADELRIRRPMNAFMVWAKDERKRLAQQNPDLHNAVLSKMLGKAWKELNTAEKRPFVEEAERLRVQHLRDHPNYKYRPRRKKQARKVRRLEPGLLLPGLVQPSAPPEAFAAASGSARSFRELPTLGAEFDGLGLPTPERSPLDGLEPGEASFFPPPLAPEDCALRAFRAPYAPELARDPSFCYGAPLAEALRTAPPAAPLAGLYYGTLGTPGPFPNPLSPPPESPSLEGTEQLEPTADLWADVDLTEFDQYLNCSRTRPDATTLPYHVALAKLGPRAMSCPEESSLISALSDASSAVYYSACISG

[2] = Critical micellar concentration of the compound; type: physicochemical
[3] = Cytotoxicity in African green monkey COS7 cells assessed as reduction in cell viability incubated for 24 hrs by Alamar blue dye based assay; parameters: species or system COS-7; conditions: chlorocebus aethiops
[4] = biological target: Adenosine receptor A1 (Homo sapiens) (UniProt P30542); assay: Inhibition of human adenosine A1 receptor at 10 uM relative to control
[5] = biological target: Adenosine receptor A2a (Homo sapiens) (UniProt P29274); assay: Inhibition of human adenosine A2A receptor at 10 uM relative to control
[6] = biological target: Beta-1 adrenergic receptor (Homo sapiens) (UniProt P08588); assay: Inhibition of human adrenergic beta1 receptor at 10 uM relative to control
Beta-1 adrenergic receptor (Homo sapiens), sequence (P08588 whole entry, looked up): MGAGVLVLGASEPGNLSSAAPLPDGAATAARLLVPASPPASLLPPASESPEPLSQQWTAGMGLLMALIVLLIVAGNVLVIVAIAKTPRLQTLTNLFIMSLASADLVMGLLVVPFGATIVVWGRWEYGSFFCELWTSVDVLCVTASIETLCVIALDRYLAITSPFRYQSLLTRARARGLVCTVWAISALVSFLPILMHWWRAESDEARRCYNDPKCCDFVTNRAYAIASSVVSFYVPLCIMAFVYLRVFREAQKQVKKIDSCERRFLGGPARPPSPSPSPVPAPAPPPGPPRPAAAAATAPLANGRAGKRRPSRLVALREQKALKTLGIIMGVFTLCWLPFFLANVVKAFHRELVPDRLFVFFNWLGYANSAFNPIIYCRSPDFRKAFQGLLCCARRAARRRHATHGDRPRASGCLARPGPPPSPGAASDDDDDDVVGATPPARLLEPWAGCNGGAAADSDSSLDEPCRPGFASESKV

[7] = biological target: D(2) dopamine receptor (Homo sapiens) (UniProt P14416); assay: Inhibition of human dopamine D2S receptor at 10 uM relative to control
[8] = biological target: Mu-type opioid receptor (Homo sapiens) (UniProt P35372); assay: Inhibition of human mu opioid receptor at 10 uM relative to control
[9] = biological target: Glutamate NMDA receptor (Rattus norvegicus) (UniProt P35439+Q00959+Q00960+Q00961+Q62645+Q8VHN2+Q9R1M7); assay: Inhibition of rat NMDA glutamate receptor at 10 uM relative to control; type: protein-complex assay
[10] = biological target: Androgen receptor (Homo sapiens) (UniProt P10275); assay: Inhibition of human androgen receptor at 10 uM relative to control
Androgen receptor (Homo sapiens), sequence (P10275 whole entry): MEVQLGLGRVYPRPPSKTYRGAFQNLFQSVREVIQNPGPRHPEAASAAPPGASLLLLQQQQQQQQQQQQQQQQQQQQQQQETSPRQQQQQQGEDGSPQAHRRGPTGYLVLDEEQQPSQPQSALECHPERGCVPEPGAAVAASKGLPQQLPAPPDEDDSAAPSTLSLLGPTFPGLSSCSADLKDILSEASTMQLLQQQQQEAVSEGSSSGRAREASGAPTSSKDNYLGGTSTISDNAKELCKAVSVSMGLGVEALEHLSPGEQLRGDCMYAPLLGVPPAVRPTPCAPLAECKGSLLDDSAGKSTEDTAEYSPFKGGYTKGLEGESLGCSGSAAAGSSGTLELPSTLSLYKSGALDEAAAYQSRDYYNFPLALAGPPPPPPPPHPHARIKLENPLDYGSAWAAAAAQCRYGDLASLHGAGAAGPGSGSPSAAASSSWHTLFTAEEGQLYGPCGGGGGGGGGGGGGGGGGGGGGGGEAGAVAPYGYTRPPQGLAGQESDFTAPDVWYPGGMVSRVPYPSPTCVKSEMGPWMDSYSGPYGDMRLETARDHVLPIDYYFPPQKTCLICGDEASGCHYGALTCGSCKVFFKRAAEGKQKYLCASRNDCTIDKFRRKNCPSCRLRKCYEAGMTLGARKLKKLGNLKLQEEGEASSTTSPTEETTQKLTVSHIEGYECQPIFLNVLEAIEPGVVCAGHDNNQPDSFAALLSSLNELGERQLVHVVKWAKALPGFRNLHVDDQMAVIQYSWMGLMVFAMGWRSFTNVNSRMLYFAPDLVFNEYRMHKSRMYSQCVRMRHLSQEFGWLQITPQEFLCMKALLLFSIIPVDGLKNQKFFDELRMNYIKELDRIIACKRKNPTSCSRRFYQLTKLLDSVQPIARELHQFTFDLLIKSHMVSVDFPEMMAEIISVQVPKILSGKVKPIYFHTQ

[11] = biological target: Estrogen receptor (Homo sapiens) (UniProt P03372); assay: Inhibition of human ERalpha at 10 uM relative to control
Estrogen receptor (Homo sapiens), sequence (P03372 whole entry): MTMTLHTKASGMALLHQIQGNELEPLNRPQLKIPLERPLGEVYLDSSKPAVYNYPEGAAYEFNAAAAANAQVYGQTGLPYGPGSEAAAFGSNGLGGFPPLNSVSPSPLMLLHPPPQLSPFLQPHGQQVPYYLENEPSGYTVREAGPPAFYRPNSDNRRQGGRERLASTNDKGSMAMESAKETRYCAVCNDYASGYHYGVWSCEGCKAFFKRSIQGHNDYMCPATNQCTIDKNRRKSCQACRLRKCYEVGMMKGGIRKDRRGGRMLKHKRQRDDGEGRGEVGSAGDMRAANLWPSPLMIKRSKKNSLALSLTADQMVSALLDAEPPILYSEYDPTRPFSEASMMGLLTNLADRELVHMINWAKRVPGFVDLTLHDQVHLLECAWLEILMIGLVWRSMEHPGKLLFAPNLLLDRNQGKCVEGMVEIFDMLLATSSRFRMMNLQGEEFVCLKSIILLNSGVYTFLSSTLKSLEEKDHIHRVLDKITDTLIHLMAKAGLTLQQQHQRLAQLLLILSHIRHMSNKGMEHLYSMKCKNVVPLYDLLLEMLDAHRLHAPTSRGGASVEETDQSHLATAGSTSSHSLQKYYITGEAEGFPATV

[12] = biological target: Glucocorticoid receptor (Homo sapiens) (UniProt P04150); assay: Inhibition of human glucocorticoid receptor at 10 uM relative to control
[13] = biological target: Thyroid Hormone Receptor (Rattus norvegicus) (UniProt P18113+P63059); assay: Inhibition of rat thyroid hormone receptor at 10 uM relative to control; type: protein assay
Thyroid Hormone Receptor (Rattus norvegicus), sequence (P18113 whole entry, looked up): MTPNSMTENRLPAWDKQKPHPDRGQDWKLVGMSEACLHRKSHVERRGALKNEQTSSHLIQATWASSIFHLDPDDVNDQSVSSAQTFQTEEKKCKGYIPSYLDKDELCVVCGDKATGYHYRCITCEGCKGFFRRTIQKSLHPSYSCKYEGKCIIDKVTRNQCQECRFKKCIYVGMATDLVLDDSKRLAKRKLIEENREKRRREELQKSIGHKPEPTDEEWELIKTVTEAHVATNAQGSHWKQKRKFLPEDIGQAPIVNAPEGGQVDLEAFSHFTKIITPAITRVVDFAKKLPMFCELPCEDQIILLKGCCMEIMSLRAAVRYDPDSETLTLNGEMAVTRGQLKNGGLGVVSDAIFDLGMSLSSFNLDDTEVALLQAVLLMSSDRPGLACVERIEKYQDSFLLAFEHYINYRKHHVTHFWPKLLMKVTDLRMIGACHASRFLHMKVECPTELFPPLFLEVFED
Thyroid Hormone Receptor (Rattus norvegicus), sequence (P63059 whole entry, looked up): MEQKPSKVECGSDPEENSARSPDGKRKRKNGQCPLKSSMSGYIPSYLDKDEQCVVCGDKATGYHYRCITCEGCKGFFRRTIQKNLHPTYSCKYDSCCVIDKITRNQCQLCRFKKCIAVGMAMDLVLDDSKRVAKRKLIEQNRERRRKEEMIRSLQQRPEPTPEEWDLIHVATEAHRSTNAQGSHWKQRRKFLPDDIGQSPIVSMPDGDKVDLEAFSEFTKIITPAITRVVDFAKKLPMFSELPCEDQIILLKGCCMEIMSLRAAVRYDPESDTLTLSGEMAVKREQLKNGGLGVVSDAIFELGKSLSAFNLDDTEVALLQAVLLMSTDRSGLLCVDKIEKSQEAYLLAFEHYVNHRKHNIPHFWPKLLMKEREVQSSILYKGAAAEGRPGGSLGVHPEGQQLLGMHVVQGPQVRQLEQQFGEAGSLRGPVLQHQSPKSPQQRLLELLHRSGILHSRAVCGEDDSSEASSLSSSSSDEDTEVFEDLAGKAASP

[14] = biological target: Sodium-dependent noradrenaline transporter (Homo sapiens) (UniProt P23975); assay: Inhibition of human NET at 10 uM relative to control
Sodium-dependent noradrenaline transporter (Homo sapiens), sequence (P23975 whole entry): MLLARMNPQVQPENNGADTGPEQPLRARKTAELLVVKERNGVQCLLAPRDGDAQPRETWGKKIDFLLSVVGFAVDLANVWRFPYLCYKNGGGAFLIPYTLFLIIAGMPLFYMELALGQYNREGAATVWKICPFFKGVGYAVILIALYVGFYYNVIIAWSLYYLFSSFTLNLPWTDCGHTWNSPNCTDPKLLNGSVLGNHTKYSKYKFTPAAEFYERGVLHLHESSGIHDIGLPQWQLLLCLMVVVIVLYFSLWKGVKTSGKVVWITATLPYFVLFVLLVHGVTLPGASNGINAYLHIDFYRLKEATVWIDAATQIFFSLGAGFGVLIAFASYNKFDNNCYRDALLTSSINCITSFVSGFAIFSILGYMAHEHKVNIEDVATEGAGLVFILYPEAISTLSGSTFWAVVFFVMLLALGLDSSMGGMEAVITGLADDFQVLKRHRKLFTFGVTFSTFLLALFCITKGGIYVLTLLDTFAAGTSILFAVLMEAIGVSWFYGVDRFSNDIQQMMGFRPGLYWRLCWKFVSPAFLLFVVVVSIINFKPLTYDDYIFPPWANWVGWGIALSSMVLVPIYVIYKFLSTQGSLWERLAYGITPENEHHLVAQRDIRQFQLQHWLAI

[15] = biological target: Histone deacetylase 4 (Homo sapiens) (UniProt P56524); assay: Inhibition of human HDAC4 at 10 uM relative to control
[16] = biological target: NAD-dependent protein deacetylase sirtuin-1 (Homo sapiens) (UniProt Q96EB6); assay: Inhibition of human Sirtuin1 at 10 uM relative to control
NAD-dependent protein deacetylase sirtuin-1 (Homo sapiens), sequence (Q96EB6 whole entry): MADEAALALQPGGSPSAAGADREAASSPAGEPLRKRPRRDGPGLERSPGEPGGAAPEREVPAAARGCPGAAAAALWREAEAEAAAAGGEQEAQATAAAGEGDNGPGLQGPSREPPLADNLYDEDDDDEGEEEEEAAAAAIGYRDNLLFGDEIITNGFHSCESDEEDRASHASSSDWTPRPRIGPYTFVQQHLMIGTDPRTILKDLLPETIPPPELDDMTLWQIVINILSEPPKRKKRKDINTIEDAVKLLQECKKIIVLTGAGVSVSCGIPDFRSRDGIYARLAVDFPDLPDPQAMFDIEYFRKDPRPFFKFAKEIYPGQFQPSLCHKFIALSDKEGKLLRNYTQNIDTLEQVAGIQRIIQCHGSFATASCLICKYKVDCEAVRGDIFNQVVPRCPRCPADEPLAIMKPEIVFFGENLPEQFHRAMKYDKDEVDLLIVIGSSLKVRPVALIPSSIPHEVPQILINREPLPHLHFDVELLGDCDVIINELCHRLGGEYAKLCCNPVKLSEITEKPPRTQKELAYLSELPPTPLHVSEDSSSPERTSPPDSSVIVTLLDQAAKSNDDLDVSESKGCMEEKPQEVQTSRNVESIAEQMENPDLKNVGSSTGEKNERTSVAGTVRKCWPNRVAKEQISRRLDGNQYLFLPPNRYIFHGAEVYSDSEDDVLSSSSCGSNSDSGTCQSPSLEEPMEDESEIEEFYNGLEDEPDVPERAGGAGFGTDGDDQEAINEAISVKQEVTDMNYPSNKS

[17] = biological target: Transcriptional repressor CTCF (Homo sapiens) (UniProt P49711); assay: Inhibition of CTCF in HUVEC assessed as reduction of CTCF transcriptional activity by genome-wide RNA-seq and ChlP-seq analysis; type: cell-based
[18] = biological target: Histone-lysine N-methyltransferase EZH2 (Homo sapiens) (UniProt Q15910); assay: Inhibition of EZH2 in HUVEC assessed as reduction of EZH2 transcriptional activity by genome-wide RNA-seq and ChlP-seq analysis; type: cell-based
[19] = biological target: Protein max (Homo sapiens) (UniProt P61244); assay: Inhibition of MAX in HUVEC assessed as reduction of MAX transcriptional activity by genome-wide RNA-seq and ChlP-seq analysis; type: cell-based
Protein max (Homo sapiens), sequence (P61244 whole entry): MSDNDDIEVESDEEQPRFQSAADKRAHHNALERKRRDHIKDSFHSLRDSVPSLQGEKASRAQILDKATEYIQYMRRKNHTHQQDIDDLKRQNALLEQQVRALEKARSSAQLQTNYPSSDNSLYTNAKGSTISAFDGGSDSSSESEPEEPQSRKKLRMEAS

[20] = biological target: Myc proto-oncogene protein (Homo sapiens) (UniProt P01106); assay: Inhibition of c-MYC in HUVEC assessed as reduction of c-MYC transcriptional activity by genome-wide RNA-seq and ChlP-seq analysis; type: cell-based
Myc proto-oncogene protein (Homo sapiens), sequence (P01106 whole entry): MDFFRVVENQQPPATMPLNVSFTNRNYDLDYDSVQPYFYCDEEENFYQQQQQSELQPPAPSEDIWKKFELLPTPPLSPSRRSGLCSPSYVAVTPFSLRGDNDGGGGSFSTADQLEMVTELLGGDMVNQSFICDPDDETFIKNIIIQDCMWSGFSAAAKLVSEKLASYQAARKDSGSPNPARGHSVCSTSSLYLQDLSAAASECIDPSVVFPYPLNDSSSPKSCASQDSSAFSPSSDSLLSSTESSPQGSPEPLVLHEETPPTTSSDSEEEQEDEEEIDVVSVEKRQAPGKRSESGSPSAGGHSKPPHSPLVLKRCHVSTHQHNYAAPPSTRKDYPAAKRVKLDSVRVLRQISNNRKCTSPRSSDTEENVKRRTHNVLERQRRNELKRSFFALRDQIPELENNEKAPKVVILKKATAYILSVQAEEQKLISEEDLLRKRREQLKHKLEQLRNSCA

[21] = biological target: Transcription factor SOX-17 (Homo sapiens) (UniProt Q9H6I2); assay: Inhibition of SOX17 (unknown origin) expressed in African green monkey COS7 cells assessed as reduction in SOX17 transcriptional activity at; type: cell-based
[22] = tested on: Danio rerio; assay: Induction of arterial and venous genes dys-regulation in zebrafish larvae harboring fli1 a:eGFP,-6.5kdrl:mCherry assessed as effect on cdh5 gene expression at 1.5 uM dosed starting from 16 hpf and measured at 24 and 48 hpf by qRT-PCR analysis; type: functional, organism-based
[23] = tested on: Danio rerio; assay: Induction of arterial and venous genes dys-regulation in zebrafish larvae harboring fli1 a:eGFP,-6.5kdrl:mCherry assessed as effect on Ilk1 gene expression at 1.5 uM dosed starting from 16 hpf and measured at 24 and 48 hpf by qRT-PCR analysis; type: functional, organism-based
[24] = tested on: Danio rerio; assay: Induction of arterial and venous genes dys-regulation in zebrafish larvae harboring fli1 a:eGFP,-6.5kdrl:mCherry assessed as effect on mCherry gene expression at 1.5 uM dosed starting from 16 hpf and measured at 24 and 48 hpf by qRT-PCR analysis; type: functional, organism-based
[25] = tested on: Danio rerio; assay: Induction of arterial and venous genes dys-regulation in zebrafish larvae harboring fli1 a:eGFP,-6.5kdrl:mCherry assessed as effect on Ilt4 gene expression at 1.5 uM dosed starting from 16 hpf and measured at 24 and 48 hpf by qRT-PCR analysis; type: functional, organism-based
[26] = Plasma concentration in BALB/c mouse xenografted with mouse 4T1.2 cells at 25 mg/kg/day for 10 days measured at day 7; type: ADME, organism-based
[27] = tested on: 4T1.2; assay: Antitumor activity against mouse 4T1.2 cells implanted in BALB/c mouse assessed as median disease latency time at 50 mg/kg/day for 10 days (Rvb =40 days); type: functional
[28] = tested on: 4T1.2; assay: Antitumor activity against mouse 4T1.2 cells implanted in BALB/c mouse assessed as effect on tumor size at 25 mg/kg/day for 10 days; type: functional, organism-based
[29] = tested on: 4T1.2; assay: Antitumor activity against mouse 4T1.2 cells implanted in BALB/c mouse undergoing sham surgery without excising tumor on day 12 assessed as effect on mouse survival at 25 mg/kg/day for 10 days; type: functional, organism-based
[30] = tested on: 4T1.2; assay: Inhibition of tumor induced lymphangiogenesis response in mouse 4T1.2 cells implanted BALB/c mouse assessed as reduction in tumor associated lymphatic vessels at 25 mg/kg/day for 10 days by PROX1/podoplanin detection based immunofluorescent staining relative to control; type: functional; conditions: 4T1.2, 240 h
[31] = tested on: 4T1.2; assay: Inhibition of tumor induced lymphangiogenesis response in mouse 4T1.2 cells implanted BALB/c mouse assessed as reduction in number of lymphatic endothelial cells at 25 mg/kg/day for 10 days by PROX1/podoplanin detection based immunofluorescent staining relative to control; type: functional; conditions: 4T1.2, 240 h

## O=C(O)c1c(O)cccc1CCc1ccc2ccccc2c1
[1]
  Activity: Active
[2]
  CMC: > 1000 µM
[3]
  CC50 at 24 h: 117 µM
[4]
  inhibition: -8%
[5]
  inhibition: 30%
[6]
  inhibition: 6%
[7]
  inhibition: 15%
[8]
  inhibition: 3%
[9]
  inhibition: -5%
[10]
  inhibition: 1%
[11]
  inhibition: -10%
[12]
  inhibition: 12%
[13]
  inhibition: 36%
[14]
  inhibition: 34%
[15]
  inhibition: 5.1%
[16]
  inhibition: 0%
[17]
  inhibition: inactive
[18]
  inhibition: inactive
[19]
  inhibition: inactive
[20]
  inhibition: inactive
[21]
  inhibition: inactive
[22]
  Activity: Active
[23]
  Activity: Active
[24]
  Activity: Active
[25]
  Activity: Active
[26]
  concentration at 240 h: 38300 ng/mL
[27]
  Time: 73 days
[28]
  Activity: inactive
[29]
  Activity: inactive
[30]
  inhibition in vivo at 25 mg/kg/day: 65%
[31]
  inhibition in vivo at 25 mg/kg/day: 70%

Reference: ChEMBL document CHEMBL4420080, “Inhibitors of sox18 protein activity for treating angiogenesis- and/or lymphangiogenesis-related diseases” (2018)
